# Measured values as given in patent US9957332B2, “Compositions and methods for treating cocaine-related disorders” (University of Cincinnati, priority 2006, dated 2018).
# Key:
# [1] = Effect of infused mAbs on plasma and brain cocaine concentrations and pharmacokinetics; type: in vivo, mice
# [2] = Radioligand binding assay using antibody and [3H]-cocaine; conditions: [3H]-cocaine radioligand binding; read-out: dissociation constant (Kd) for cocaine
# Description: (§1) In another embodiment, an antibody binds cocaine or a derivative thereof. […] Other examples of cocaine derivatives include: (−) cocaine; cocaine propyl ester; RTI-128; RTI-66; RTI-160; RTI-192; m-hydroxycocaine; WIN 35,065-2; WIN 35,428; RTI-31; RTI-32; RTI-55; RTI-111; m-hydroxybenzoylecgonine; p-hydroxybenzoylecgonine; RTI-113; tropine; benztropine; 4′,4″-difluoro-3α-diphenylmethoxytropane; hyoscyamine-N-oxide; methylanisotropine; tropisetronmethiodide; anisodine; scopotamine; scopotamine-N-oxide; methylscopolamine; N-butylscopolamine; (−) pseudococaine; (+) cocaine; norcaine; benzoylnorecgonine; (+) pseudococaine; ecgonidine; exo-6-hydroxytropinone; and methylcocaethylene.
# [3] = Effect of 2E2 on cocaine metabolite concentrations in plasma and brain; type: in vivo; conditions: mice
# [4] = 2E2 in vivo pharmacokinetics, blood mAb by ELISA; conditions: mice
# Description: Then at varying times, to obtain blood samples for mAb quantification, the mice are anesthetized using isoflurane and a sterile 27-gauge hypodermic needle or, alternatively, a sterile scalpel blade is used to puncture or make a small cut in a tail vein and 10 μl of blood is collected using a heparinized capillary pipette tip. The blood is immediately placed in a 1.5 ml polypropylene microcentrifuge tube containing 40 μl of 0.1 M sodium citrate/0.1% sodium azide pH 4.75. These samples are then rapidly placed on ice and then stored at 4° C. until use.
# Briefly, the conjugate benzoylecgonine-ovalbumin (3 μg/ml, 100 μl/well) in 1 mM EGTA pH 7.4 is adsorbed onto PVC 96-well microtiter plates for 1 hr. The plates are then washed 3 times with, and all wells exposed for 10 min to, 0.5% BSA in TBS (10 mM Tris, 140 mM NaCl and 0.02% NaN3, pH 6.9) in order to block non-specific protein binding. The second layer, 100 μl/well of the blood samples diluted (1:500) into BSA-TBS, is added and the sample is incubated for 2 hr. […] The plates are washed with a Solution A, containing 0.5% BSA, 10 mM sodium phosphate, 145 mM NaCl, 1.5 mM MgCl2, 0.05% triton X-100 and 0.02% NaN3, pH 7.2. Then 50 μl/well of affinity-purified biotinylated goat anti-human IgG diluted 1:500 in Solution A is added and incubated for 1 hr. After washing, 50 μl/well of streptavidin-alkaline phosphatase, diluted (1:200) in Solution A, is added, incubated for 1 hr and removed. Then 50 μl/well of the colorimetric reaction mixture, comprised of the substrate para-nitrophenylphosphate (1 mg/ml) in substrate buffer (50 mM Na2CO3, 50 mM NaHCO3 1 mM MgCl2 at pH 9.8), is added. After 6-8 min the reaction is stopped with 1M sodium hydroxide (50 μl/well). […] The reaction endpoint is measured with an ELISA reader at a wavelength of 405 nm. […]
# The program provides Akaike Information Criterion (AIC) and Schwartz Bayesian Criterion (SBC) measures of “goodness of fit” of the data to the one or two compartment pharmacokinetic models that are used. Data are first analyzed according to a single compartment pharmacokinetic model.
# [5] = Cocaine pharmacokinetics in plasma and brain (GC/MS), absence of mAb; conditions: for mean metabolite concentration in brain / mean metabolite concentration in plasma: 5 min after cocaine injection
# Description: Jugular vein catheterized male Swiss-Webster mice (22-28 g at the start of the studies) are purchased. Mice are housed individually with free access to food and water and kept on a 12 h light/dark cycle.
# The antibody (3-5 mg/ml) in phosphate-buffered saline (PBS) or vehicle (PBS) is infused at a rate of approximately 0.35 ml/min for up to two min, depending on the antibody concentration and the body weight of the animal, with the animal held under mild restraint. One hour after completion of the infusion of mAb, cocaine HCl (0.56 mg/kg) plus heparin (400 units/kg) is injected intravenously through the same catheter at a volume of 4.0 ml/kg body weight. At most sampling times, sodium pentobarbital (45 mg/kg, i.p) is administered three minutes prior to sacrificing the animal. For the 0.75 min time point the cocaine is injected into anesthetized mice. At the designated times after the injection of cocaine, anesthetized mice are sacrificed by decapitation and trunk blood (typically 0.8-1.2 ml) is collected in a 1.5 ml polypropylene microcentrifuge tube containing 11.2 μl heparin (1.0 unit/μl) and NaF (16 mg/0.8 ml of blood) to inhibit, respectively, blood coagulation and enzymatic hydrolysis of cocaine. The blood samples are centrifuged at 5,000×g for 3 min, then the plasma (typically 0.4-0.8 ml) is carefully separated from packed red blood cells, placed into sterile 1.5 ml Eppendorf microcentrifuge tubes, rapidly frozen on dry ice and then stored at −80° C. until analysis.
# The whole brain is quickly removed from the decapitated mice, surface blood is blotted away, and the brain is placed in a polypropylene tube, rapidly frozen on dry ice and then stored at −80° C. until analysis. For analysis, brains are weighed and cold deionized, distilled water added to produce a total volume of 1 ml, then homogenized and centrifuged at 13,000 rpm for 45 min at 4° C. The resulting supernatants (0.4-0.6 ml) are collected into sterile polypropylene microcentrifuge tubes and an aliquot (0.05-0.40 ml) is processed for cocaine/metabolite analysis by GC/MS and hemoglobin content. Any remaining sample is stored at −80° C.
# In order to determine in vivo concentrations of cocaine and its metabolites BE and EME, following the i.v. injection of cocaine, 100-400 μl samples of heparinized/NaF treated plasma and 400 μl samples of brain homogenates obtained from cocaine-treated animals are added to 2 ml of 0.1 M Na phosphate buffer, pH 6.0. This is followed by the addition of 5% trichloroacetic acid at a volume equal to that of the experimental sample (100-400 μl). These mixtures are shaken for 20 minutes and then centrifuged for 15 min at 7000 rpm, all at room temperature, in order to precipitate the denatured protein. The supernatants are collected and adjusted to pH 5.4 with 10 M NaOH. Then to serve as internal standards for establishing the identification of cocaine and its metabolites as well as for normalization of the recovery of cocaine/metabolites from the mouse samples, 50 μl of a sample containing deuterated (D3) cocaine-D3, BE-D3 and EME-D3 (each at 1 μg/ml) is added to all of the experimental and the standard control samples before their undergoing solid-phase extraction/column elution. Duplicate, standard control tubes (2 ml) are also prepared containing; 0.1 M Na phosphate buffer, 50 μl of the internal standards D3 cocaine/BE/EME (1 μg/ml, each), 200 μl of normal mouse plasma and varying amounts of cocaine (1-500 ng) and used to generate the standard cocaine concentration curves. Similarly, standard concentration curves are also generated for BE and EME.
# [6] = target: anti-cocaine antibody (present antibodies); experiment: Competition assays with constant [3H]-cocaine and nonradioactive competitors at the antibody; conditions: competition with [3H]-cocaine at antibody; read-out: binding inhibition constant (Ki)
# Description: as §1
# [7] = mice, 5 min after i.v. cocaine, stoichiometric mAb dose
molecule,measurement,setting,value
2E2: anti-cocaine mAb with human gamma heavy chain (SEQ ID NO: 2) and murine lambda light chain (SEQ ID NO: 1),brain cocaine concentration at highest mAb dose,"[1]; mice, 360 mg/kg (3:1 mAb:drug), corrected for residual blood",negligible
same,increase in plasma cocaine concentrations,"[1]; mice, 2E2 12 mg/kg (1:10 mAb:cocaine), 5 min",5.1 fold
same,decrease in brain cocaine concentrations,"[1]; mice, 2E2 24 mg/kg, 5 min",35%
same,"peak plasma cocaine concentration, presence vs absence of 2E2","[1]; mice, 2E2 120 mg/kg",11.3 fold
same,t1/2 of cocaine in plasma in the presence of mAb,"[1]; mice, 2E2 120 mg/kg (equimolar), single compartment model",17.1 min
same,peak plasma cocaine concentration in the presence of 2E2,"[1]; mice, 2E2 120 mg/kg, 45 sec after cocaine […] i.v.","~1,100 ng/ml"
same,peak brain cocaine concentration in the presence of 2E2,"[1]; mice, 2E2 120 mg/kg, earliest sample time",~490 ng/g
same,elimination t1/2 of cocaine in brain in the presence of 2E2,"[1]; mice, 2E2 120 mg/kg, single compartment model",3.8 min
same,increase in plasma cocaine concentrations,"[1]; mice, 2E2 360 mg/kg (3:1 ratio), 5 min",46.1 fold
same,decrease in brain cocaine concentration vs vehicle controls,"[1]; mice, 5 min, Table 1",~5 fold
same,increase in plasma cocaine concentration vs vehicle controls,"[1]; mice, 5 min, Table 1",29 fold
same,Change from vehicle (brain cocaine concentration),[1]; [7],−4.8-fold
same,Change from vehicle (plasma cocaine concentration),[1]; [7],+28.7-fold
same,Vdss of cocaine in the presence of mAb,"[1]; mice, equimolar dose of 2E2",0.2 L/kg
same,increase in plasma cocaine AUC,"[1]; mouse, in vivo",26 fold
same,Kd,[2],4 nM
same,effect of 2E2 dose on brain EME concentrations,[3],no systematic effect
same,effect on brain BE concentrations,[3]; 2E2 doses above 40 mg/kg,concomitant decrease
same,reduction in plasma EME concentrations,[3]; highest dose of 2E2,~2 fold
same,increase in plasma BE concentrations,"[3]; increasing doses of 2E2, plateau above 40 mg/kg",~3 fold
same,elimination t1/2 of 2E2 in blood,"[4]; 120 mg/kg i.v. infusion, single compartment model",194 h
same,initial blood concentration of mAb (mean±SEM),"[4]; 120 mg/kg i.v., 3 minutes after infusion, n=8",370 ± 17 µg/mL
same,mean blood concentration of 2E2,"[4]; 120 mg/kg i.v., 24 hours after infusion",422 ± 21 µg/mL
CN1[C@H]2CC[C@@H]1[C@@H](C(=O)O)[C@@H](OC(=O)c1ccccc1)C2 [benzoylecgonine],mean metabolite concentration in brain,"[5]; mice, absence of 2E2",16 ng/g
same,mean metabolite concentration in plasma,"[5]; mice, absence of 2E2",7 ng/mL
same,Ki,[6],43 nM
CCOC(=O)[C@@H]1C2CCC(C[C@@H]1OC(=O)c1ccccc1)N2C (stereo partly shown) [cocaethylene],Ki,[6],3.4 nM
COC(=O)[C@H]1[C@@H](OC(=O)c2ccccc2)C[C@@H]2CC[C@H]1N2C [cocaine],half-life,"[5]; male, Swiss-Webster, mouse, brain, iv, […], t1/2 for entry (input) of cocaine into the brain, mice, absence of 2E2",2 min
same,Vd,"[5]; male, Swiss-Webster, mouse, plasma, iv, […]",6 L/kg
same,half-life,"[5]; male, Swiss-Webster, mouse, plasma, iv, […], plasma distribution half-life (t1/2α) of cocaine, mice, cocaine HCl […] i.v., absence of 2E2, two-compartment model",1.9 min
same,half-life,"[5]; male, Swiss-Webster, mouse, plasma, iv, […], plasma terminal elimination half-life (t1/2β) of cocaine, mice, cocaine HCl […] i.v., absence of 2E2, two-compartment model",26.1 min
same,plasma terminal elimination half-life (t1/2β) of cocaine,"[5]; mice, cocaine HCl […] i.v., absence of 2E2, two-compartment model",26 min
same,brain t1/2α of cocaine,"[5]; mice, i.v., absence of 2E2, two-compartment model",2.0 min
same,highest measured brain cocaine concentration,"[5]; mice, i.v., at 3 min, absence of 2E2","~1,500 ng/g"
same,highest plasma cocaine concentration,"[5]; mice, i.v., earliest sample time (45 sec), absence of 2E2",~110 ng/mL
same,brain t1/2β of cocaine,"[5]; mouse, in vivo, iv",14.5 min
COC(=O)[C@@H]1[C@H]2CC[C@@H](C[C@@H]1O)N2C [ecgonine methyl ester],mean metabolite concentration in brain,"[5]; mice, absence of 2E2",267 ng/g
same,mean metabolite concentration in plasma,"[5]; mice, absence of 2E2",25 ng/mL
same,Ki,[6],5200 nM
CN1[C@H]2CC[C@@H]1[C@@H](C(=O)O)[C@@H](O)C2 [ecogonine],Ki,[6],95000 nM
